Where two headings read alike, the source gives them in different places.
Legend:
[1] = tested on: primary porcine brain endothelial cells (PBECs); conditions: cited from earlier work
[2] = in vitro; conditions: human
[3] = in vitro; conditions: human; remark: listed apart in the source
[4] = tested on: hiPSC-derived BMECs
[5] = Permeability assay across hiPSC-derived BMECs clone 2 on Transwell, co-culture with human astrocytes
[6] = tested on: hiPSC-derived BMECs (Cl1); experiment: Permeability assay across hiPSC-derived BMECs clone 1 on Transwell, co-culture with human astrocytes
[7] = tested on: human endothelial cell line hCMEC/D3; design: method as in PMID 30374619; conditions: cited from earlier work
[8] = tested on: hiPSC-derived BMECs (Cl1)
[9] = tested on: hiPSC-derived BMECs (Cl2)
[10] = tested on: hiPSC-derived BMECs (IMR-90); conditions: cited from earlier work
[11] = tested on: hiPSC-derived BMECs (r-iSPC 1j cells); design: method as in Delsing et al. 34; conditions: ref Delsing et al. 34; cited from earlier work
[12] = Human BBB model permeability, clone not specified or both clones; conditions: human
[13] = tested on: hiPSC-derived BMECs; experiment: as above; conditions: for Permeability classification in words: human BBB model, for several compounds stated for both human and porcine models
[14] = tested on: primary porcine brain endothelial cells (PBECs); experiment: Porcine BBB model transport assay; conditions: porcine vs human
[15] = Permeability assay across hiPSC-derived BMECs clone 1 on Transwell, co-culture with human astrocytes
[16] = tested on: hiPSC-derived BMECs; conditions: ref Lippmann 6; cited from earlier work

O=C(O)c1cc(=O)c2ccccc2[nH]1 [kynurenic acid]
Permeability in porcine (unit not given) ([1]; porcine model): 2.8 | Papp ([2]; Permeability human BBB_Cl1): 0.32 ± 0.06 ×10⁻⁶ cm/s | Papp [3]: 0.3 ×10⁻⁶ cm/s | Permeability classification in words [4]: low permeability

OC[C@H]1OC(O)[C@H](O)[C@@H](O)[C@@H]1O (stereo partly shown) [glucose]
Permeability in the porcine model [1]: 7 ×10⁻⁶ cm/s | Papp ([2]; Permeability human BBB_Cl1): 25 ± 2.7 ×10⁻⁶ cm/s | Papp [5]: 25.2 ± 7.9 ×10⁻⁶ cm/s | Fold higher permeability in the human than in the porcine model ([4]; human and pig): more than 3.5 | Inhibition of transport by phloretin ([6]; 200 µM phloretin): ~80%

CC(C)C[C@H](CN)CC(=O)O [pregabalin]
Inhibition in the uptake after LAT-1 mRNA silencing [7]: 75%

lucifer yellow
Permeability A-B [8]: 0.15 ± 0.001 x10^-6 cm/s | Permeability B-A [8]: 0.13 ± 0.004 x10^-6 cm/s | Permeability fresh [8]: 0.21 ± 0.12 x10^-6 cm/s | Permeability frozen [8]: 0.09 ± 0.04 x10^-6 cm/s | Permeability human BBB_Cl1 [8]: 0.18 ± 0.11 x10^-6 cm/s | efflux ratio [8]: 0.9 | Permeability human BBB_Cl2 [9]: 0.33 ± 0.30 x10^-6 cm/s

CC(C)NCC(O)COc1cccc2ccccc12 (stereo not shown) [propranolol]
Papp ([2]; Permeability human BBB_Cl1): 25.8 ± 4.6 ×10⁻⁶ cm/s | Papp [3]: 22 to 26 ×10⁻⁶ cm/s | Papp [5]: 22 ± 2.4 ×10⁻⁶ cm/s | Published permeability ([10]; ref Mantle et al. 35): around 30 × 10^−6 cm/s | Permeability classification in words [4]: highly permeable | Published permeability [11]: 22.6 ×10⁻⁶ cm/s

COc1cccc2c1C(=O)c1c(O)c3c(c(O)c1C2=O)C[C@@](O)(C(C)=O)C[C@@H]3O[C@H]1C[C@H](N)[C@H](O)[C@H](C)O1 [daunomycin]
Papp ([2]; Permeability human BBB_Cl1): 9.3 ± 2.7 ×10⁻⁶ cm/s | Papp [3]: 7 to 9 ×10⁻⁶ cm/s | Papp [5]: 6.5 ± 0.7 ×10⁻⁶ cm/s | Fold higher permeability in the human than in the porcine model [4]: two-fold | Permeability classification in words [4]: medium permeability

CC(=O)O[C@H]1C(=O)[C@@]2(C)[C@H]([C@H](OC(=O)c3ccccc3)[C@]3(O)C[C@H](OC(=O)[C@H](O)[C@@H](NC(=O)c4ccccc4)c4ccccc4)C(C)=C1C3(C)C)[C@]1(OC(C)=O)CO[C@@H]1C[C@@H]2O [taxol]
Papp A→B [2]: 6.3 ± 0.6 ×10⁻⁶ cm/s | Papp B→A [2]: 15.4 ± 0.5 ×10⁻⁶ cm/s | efflux ratio [2]: 2.4 | Papp ([2]; Permeability human BBB_Cl1): 6.8 ± 0.7 ×10⁻⁶ cm/s | Papp [5]: 4.9 ± 1 ×10⁻⁶ cm/s

OC[C@@H](O)[C@@H](O)[C@H](O)[C@H](O)CO [mannitol]
Papp ([2]; Permeability fresh): 0.56 ± 0.28 ×10⁻⁶ cm/s | Papp ([2]; Permeability frozen): 0.67 ± 0.25 ×10⁻⁶ cm/s | Papp ([2]; Permeability human BBB_Cl1): 0.6 ± 0.24 ×10⁻⁶ cm/s | Papp [5]: 0.8 ± 0.1 ×10⁻⁶ cm/s

CCC(=O)CCCCCC(NC(=O)C1CN(C)C1)c1ncc(-c2cc3ccccc3nc2OC)o1 (stereo not shown) [cpK]
Permeability porcine BBB [1]: 10.5 ± 3.4 x10^-6 cm/s | Papp [12]: 15.4 ± 8.3 ×10⁻⁶ cm/s | Permeability classification in words [13]: medium permeability

CN(Cc1cnc2nc(N)nc(N)c2n1)c1ccc(C(=O)N[C@@H](CCC(=O)O)C(=O)O)cc1 [methotrexate]
Papp ([2]; Permeability human BBB_Cl1): 0.65 ± 0.12 ×10⁻⁶ cm/s | Fold higher permeability in the porcine than in the human model [14]: eight times | Papp [5]: 0.77 ± 0.1 ×10⁻⁶ cm/s

NCC1(CC(=O)O)CCCCC1 [gabapentin]
Papp [3]: 12 ×10⁻⁶ cm/s | Permeability classification in words [13]: moderate to high permeability | Papp ([15]; human): 11.9 ± 2.9 ×10⁻⁶ cm/s

N[C@@H](Cc1ccccc1)C(=O)O [phenylalanine]
Papp [5]: 28.6 ± 5.7 ×10⁻⁶ cm/s | Fold higher permeability in the human than in the porcine model ([13]; human vs porcine): two-fold

O=C1NC(=O)C(c2ccccc2)(c2ccccc2)N1 [phenytoin]
Papp [5]: 18.6 ± 0.9 ×10⁻⁶ cm/s | Papp [12]: 19 to 21 ×10⁻⁶ cm/s | Permeability classification in words [13]: highly permeable | Published permeability [11]: 35.6 ×10⁻⁶ cm/s | Papp ([15]; human, Permeability human BBB_Cl1, Figure 5C, mean ± sd): 21.3 ± 2.1 ×10⁻⁶ cm/s

COc1cc2nc(N3CCN(C(=O)c4ccco4)CC3)nc(N)c2cc1OC [prazosin]
Published permeability [16]: 4.3 ×10⁻⁶ cm/s | Published permeability ([10]; ref Kurosawa 20): 8.7 ×10⁻⁶ cm/s

CC(C)C[C@H](N)C(=O)O [leucine]
Vectorial transport, AB direction over BA direction [8]: three-fold | Papp A→B [2]: 18.5 ± 2.2 ×10⁻⁶ cm/s | Papp B→A [2]: 6.4 ± 0.7 ×10⁻⁶ cm/s | Papp ([2]; Permeability human BBB_Cl1): 18 ± 1.8 ×10⁻⁶ cm/s | Papp [3]: 18 to 20 ×10⁻⁶ cm/s | Papp [5]: 19.9 ± 6.4 ×10⁻⁶ cm/s | Fold higher permeability in the human than in the porcine model [4]: about three-fold | Permeability classification in words [4]: highly permeable | Reduction of transport in the presence of JPH203 ([6]; 10 µM JPH203, selective LAT1 inhibitor): about 70%

Cn1c(=O)c2c(ncn2C)n(C)c1=O [caffeine]
Papp ([2]; Permeability human BBB_Cl1): 30.7 ± 2 ×10⁻⁶ cm/s | Papp [3]: 27 to 31 ×10⁻⁶ cm/s | Papp [5]: 26.5 ± 0.6 ×10⁻⁶ cm/s | Published permeability ([10]; IMR-90 cells, ref Appelt-Menzel et al. 36): 25.3 ×10⁻⁶ cm/s | Permeability classification in words [4]: highly permeable

C[C@H]1O[C@@H](O[C@H]2[C@@H](O)C[C@H](O[C@H]3[C@@H](O)C[C@H](O[C@H]4CC[C@@]5(C)[C@H](CC[C@@H]6[C@@H]5C[C@@H](O)[C@]5(C)[C@@H](C7=CC(=O)OC7)CC[C@]65O)C4)O[C@@H]3C)O[C@@H]2C)C[C@H](O)[C@@H]1O [digoxin]
Papp B→A [2]: 7.3 ± 0.6 ×10⁻⁶ cm/s

CC[C@]1(O)C[C@@H]2CN(CCc3c([nH]c4ccccc34)[C@@](C(=O)OC)(c3cc4c(cc3OC)N(C)[C@H]3[C@@](O)(C(=O)OC)[C@H](OC(C)=O)[C@]5(CC)C=CCN6CC[C@]43[C@@H]65)C2)C1 [vinblastine]
efflux ratio [2]: 1.5 | Papp ([2]; Permeability human BBB_Cl1): 4.1 ± 0.4 ×10⁻⁶ cm/s | Papp [5]: 3.5 ± 0.8 ×10⁻⁶ cm/s | Fold higher permeability in the human than in the porcine model [4]: two-fold | Permeability classification in words [4]: medium permeability

CC(C)[C@H](NC(=O)[C@H](CCC(=O)O)NC(=O)[C@H](Cc1ccccc1)NC(=O)[C@@H](C)NC(=O)[C@@H](N)Cc1ccc(O)cc1)C(=O)N[C@H](C(=O)NCC(N)=O)C(C)C [[D-Ala2]deltorphin II]
Papp: 7.7 ± 1.7 ×10⁻⁶ cm/s | Fold higher permeability in the porcine than in the human model [14]: two-fold | Permeability classification in words [13]: moderate permeability | Papp [15]: 3.8 ± 0.5 ×10⁻⁶ cm/s

Source: publication PMC7226989, “Establishment of an in Vitro Human Blood-Brain Barrier Model Derived from Induced Pluripotent Stem Cells and Comparison to a Porcine Cell-Based System” (Cells, 2020)
